The assay has as its system VEGF-A mRNA expression in macrophages (RAW264.7). The assay can be described thus: In vitro macrophage experiment: activity of compounds to promote VEGF-A mRNA expression (RT-qPCR). It is filed as cell-based. To be noted: Mus musculus, RAW264.7 macrophages, 3 h, no drug = 1, read-out: Expression level of VEGF-A mRNA; for fold induction at 1 µM: relative expression 2^-ΔΔCt; for fold induction at 100 µM: 0.1 mM; for fold induction at 100 µM / fold induction at 500 µM / fold induction at 1000 µM / fold induction at 2000 µM / fold induction at 3000 µM: relative expression; for fold induction at 500 µM: 0.5 mM; for fold induction at 1000 µM: 1 mM; for fold induction at 2000 µM: 2 mM; for fold induction at 3000 µM: 3 mM. The source says:
1.1. Specific steps for activity screening: 1-10×10^6 macrophages (RAW264.7) in logarithmic growth phase were transferred to a cell culture plate. The test compounds (Compounds TG-001, TG-002, TG-003, TG-004, TG-005, TG-006, TG-007, TG-008, TG-009, TG-010, TG-011, TG-012, TG-013, TG-014, TG-015, TG-016, TG-017, TG-018, TG-019, TG-020, TG-021, TG-022, TG-023, TG-024, TG-025, TG-026, TG-027, TG-028, TG-029, TG-030, TG-031, TG-032, TG-033, TG-034, TG-035, TG-036, TG-037, TG-045, TG-039, TG-040 TG-041, TG-042, TG-043, TG-044, TG-045, TG-052, TG-053, TG-054, TG-047, TG-048, TG-046, TG-049, TG-050, TG-051, TG-055 and TG-056) were respectively diluted into various concentrations, and separately added to the cell culture plate containing macrophage. The cells were cultured for 3 h in a complete medium (RPMI 1640 medium:fetal bovine serum:tri-resistance screening agent (i.e. penicillin-streptomycin-gentamicin, Beijing Leagene Biotechnology Co., Ltd.)=89:10:1 based on volume) in a cell incubator at 37° C. and 5% CO2. The cells were lyzed by Trizol (Beijing ComWin Biotech Co., Ltd) to extract RNA, and the RNA concentration was measured using a microvolume nucleic acid and protein analyzer (Nanodrop2000c). The required volume V of RNA was calculated according to the RNA concentration, and the RNA reverse transcription reaction system was prepared according to Table 1. Then RNA reverse transcription (cDNA synthesis) (RT Easy™ I (For first-strand cDNA synthesis) Reverse Transcription Kit, Chengdu ForeGene Biotechnology Co., Ltd.) was carried out according to the conditions described in Table 2. The resulting cDNA was used to prepare a fluorescence quantitative PCR reaction solution according to Table 3. The fluorescence quantitative PCR reaction conditions were set according to Table 4, and the fluorescence quantitative PCR reaction (Real time PCR Easy™-SYBR Green Fluorescence Quantification Kit, Chengdu ForeGene Biotechnology Co., Ltd.) was performed using cDNA from the reverse transcription reaction as a template. The relative expression level 2^−ΔΔCt of the target gene was calculated from the Ct value of each sample with the blank control group as a control and β-Actin as an internal reference.
Based on the maximum level of VEGF-A mRNA expression promoted by a drug at a certain concentration, the activity of the drug was determined. The expression level of VEGF-A mRNA in macrophages was defined as 1 when no drug was added. Using a traditional Chinese medicine injection Salvianolate that is used in the treatment of Cardio-cerebrovascular disease and promotes a maximum level of VEGF-A mRNA expression of 6 in macrophages (the results are shown in Table 5) as a judgment standard, the compound promoting a maximum level of VEGF-A mRNA expression of 4 or more in macrophage was a target compound. That is, when the maximum level of VEGF-A mRNA expression in macrophages promoted by the test compound is over 4-fold higher than the expression level of VEGF-A mRNA in macrophages without the addition of the test compound, the test compound was a preliminary target compound promoting angiogenesis.
For orientation: In qPCR the cycle at which signal appears reflects the starting amount.

Structures are written as SMILES.

Regarding `COc1ccccc1CCCCO[C@@H]1O[C@H](CO)[C@@H](O)[C@H](O)[C@H]1O` [TG-001], the fold induction at 1 µM was 3.68, the fold induction at 100 µM was 1.65, the fold induction at 500 µM worked out at 7.89 and the fold induction at 1000 µM came out at 1.91. Further, the fold induction at 2000 µM is 2.36 and the fold induction at 3000 µM worked out at 0.68.

As for `COc1cc(CCCCO[C@@H]2O[C@H](CO)[C@@H](O)[C@H](O)[C@H]2O)cc(OC)c1` [TG-002], the fold induction at 1 µM turned out to be 1.71, the fold induction at 100 µM was 1.68, the fold induction at 500 µM came out at 1.88 and the fold induction at 1000 µM is 1.21. In addition, the fold induction at 2000 µM was 0.44 and the fold induction at 3000 µM was 0.73.

In the case of `COc1cccc(CCCCO[C@@H]2O[C@H](CO)[C@@H](O)[C@H](O)[C@H]2O)c1` [TG-004], the fold induction at 1 µM stood at 0.9, the fold induction at 100 µM was determined as 0.4, the fold induction at 500 µM worked out at 0.73 and the fold induction at 1000 µM stood at 1.11. The fold induction at 2000 µM worked out at 4.29 and the fold induction at 3000 µM was determined as 2.66.

For `COc1ccc(CCCCCO[C@@H]2O[C@H](CO)[C@@H](O)[C@H](O)[C@H]2O)cc1` [TG-005], the fold induction at 1 µM was 0.91, the fold induction at 100 µM was determined as 0.36, the fold induction at 500 µM turned out to be 2.64 and the fold induction at 1000 µM came out at 1.15. The fold induction at 2000 µM was 1.3 and the fold induction at 3000 µM came to 2.39.

`COc1ccc(CCCCCCO[C@@H]2O[C@H](CO)[C@@H](O)[C@H](O)[C@H]2O)cc1` [TG-006]: the fold induction at 1 µM worked out at 3.86, the fold induction at 100 µM worked out at 1.92, the fold induction at 500 µM turned out to be 2.48 and the fold induction at 1000 µM was found to be 0.7. The fold induction at 2000 µM came out at 0.48 and the fold induction at 3000 µM was 0.44.

Regarding `COc1cc(CCCCO[C@@H]2O[C@H](CO)[C@@H](O)[C@H](O)[C@H]2O)cc(OC)c1OC` [TG-007], the fold induction at 1 µM was 4.38, the fold induction at 100 µM was 1.67, the fold induction at 500 µM was 1.42 and the fold induction at 1000 µM came to 2.87. Moreover, the fold induction at 2000 µM was 0.65 and the fold induction at 3000 µM amounted to 0.99.

With `OC[C@H]1O[C@@H](OCCCCc2ccc3c(c2)OCO3)[C@H](O)[C@@H](O)[C@@H]1O` [TG-008], the fold induction at 1 µM turned out to be 3.34, the fold induction at 100 µM was 1.38, the fold induction at 500 µM was found to be 1.42 and the fold induction at 1000 µM turned out to be 0.61. Besides, the fold induction at 2000 µM was determined as 6.28 and the fold induction at 3000 µM was 5.46.

In the case of `OC[C@H]1O[C@@H](OCCCCC2CCCCC2)[C@H](O)[C@@H](O)[C@@H]1O` [TG-009], the fold induction at 1 µM is 1.29, the fold induction at 100 µM stood at 1.28, the fold induction at 500 µM is 0.95 and the fold induction at 1000 µM was 1. The fold induction at 2000 µM was 1.61 and the fold induction at 3000 µM turned out to be 5.94.

As to `OC[C@H]1O[C@@H](OCCCCc2ccc(F)cc2)[C@H](O)[C@@H](O)[C@@H]1O` [TG-010], the fold induction at 1 µM amounted to 0.98, the fold induction at 100 µM was 0.68, the fold induction at 500 µM worked out at 0.69 and the fold induction at 1000 µM came out at 1.48. Besides, the fold induction at 2000 µM is 5.31 and the fold induction at 3000 µM turned out to be 9.78.

Regarding `O=[N+]([O-])c1ccc(CCCCO[C@@H]2O[C@H](CO)[C@@H](O)[C@H](O)[C@H]2O)cc1` [TG-011], the fold induction at 1 µM is 1.75, the fold induction at 100 µM is 1.18, the fold induction at 500 µM came out at 1.3 and the fold induction at 1000 µM amounted to 0.46. The fold induction at 2000 µM turned out to be 1.24 and the fold induction at 3000 µM stood at 0.55.

With `OC[C@H]1O[C@@H](OCCCCc2ccc(Br)cc2)[C@H](O)[C@@H](O)[C@@H]1O` [TG-012], the fold induction at 1 µM worked out at 1.99, the fold induction at 100 µM was determined as 2.31, the fold induction at 500 µM turned out to be 3.14 and the fold induction at 1000 µM was 0.5. Also, the fold induction at 2000 µM was found to be 2.08 and the fold induction at 3000 µM came out at 4.38.

Turning to `OC[C@H]1O[C@@H](OCCCCc2ccc(OCc3ccccc3)cc2)[C@H](O)[C@@H](O)[C@@H]1O` [TG-013], the fold induction at 1 µM is 1.44, the fold induction at 100 µM stood at 2.51, the fold induction at 500 µM amounted to 3.98 and the fold induction at 1000 µM came to 3.3. Further, the fold induction at 2000 µM turned out to be 3.23 and the fold induction at 3000 µM was 2.44.

On to `C=CCOc1ccc(CCCCO[C@@H]2O[C@H](CO)[C@@H](O)[C@H](O)[C@H]2O)cc1` [TG-015], for which the fold induction at 1 µM was 1.58, the fold induction at 100 µM amounted to 1.26, the fold induction at 500 µM was 2.18 and the fold induction at 1000 µM turned out to be 4.3. Further, the fold induction at 2000 µM came to 1.65 and the fold induction at 3000 µM stood at 1.53.

For `OC[C@H]1O[C@@H](OCCCCc2ccc(OCC3CCCCC3)cc2)[C@H](O)[C@@H](O)[C@@H]1O` [TG-016], the fold induction at 1 µM was determined as 3.09, the fold induction at 100 µM stood at 1, the fold induction at 500 µM was 1.34 and the fold induction at 1000 µM was 1.54. In addition, the fold induction at 2000 µM amounted to 2.77 and the fold induction at 3000 µM was 17.1.

As to `OC[C@H]1O[C@@H](OCCCCc2ccc(OCc3cccnc3)cc2)[C@H](O)[C@@H](O)[C@@H]1O` [TG-017], the fold induction at 1 µM was determined as 1.54, the fold induction at 100 µM amounted to 1.29, the fold induction at 500 µM amounted to 2.55 and the fold induction at 1000 µM was 5.9. The fold induction at 2000 µM came out at 2.29 and the fold induction at 3000 µM came to 2.48.

For the compound `OC[C@H]1O[C@@H](OCCCCc2ccc(OCC3CCCC3)cc2)[C@H](O)[C@@H](O)[C@@H]1O` [TG-018], the fold induction at 1 µM was 0.88, the fold induction at 100 µM was found to be 3.62, the fold induction at 500 µM came out at 4.15 and the fold induction at 1000 µM is 5.26. Moreover, the fold induction at 2000 µM turned out to be 7.24 and the fold induction at 3000 µM came to 6.53.

On to `OC[C@H]1O[C@@H](OCCCCc2ccc(OCc3ccncc3)cc2)[C@H](O)[C@@H](O)[C@@H]1O` [TG-019], for which the fold induction at 1 µM was determined as 0.74, the fold induction at 100 µM stood at 0.72, the fold induction at 500 µM came to 1.03 and the fold induction at 1000 µM came out at 5.2. The fold induction at 2000 µM was found to be 7.03 and the fold induction at 3000 µM was 2.92.

Regarding `OC[C@H]1O[C@@H](OCCCCc2ccc(OCC3CCOCC3)cc2)[C@H](O)[C@@H](O)[C@@H]1O` [TG-020], the fold induction at 1 µM came out at 0.88, the fold induction at 100 µM was 0.93, the fold induction at 500 µM stood at 2.8 and the fold induction at 1000 µM came out at 3.9. Besides, the fold induction at 2000 µM was 2.24 and the fold induction at 3000 µM came to 2.56.
